Literature values in PMC9851200, “Multiparameter phenotypic screening for endogenous TFEB and TFE3 translocation identifies novel chemical series modulating lysosome function” (Autophagy, 2022).

What was measured:
Parameters in all cases: method as in original PKIS2 published data
[1] = biological target: kinases (KINOMEscan panel) (Homo sapiens, UniProt O75460); settings: Published KINOMEscan; ref original PKIS2 published data; cited from earlier work
[2] = biological target: kinases (KINOMEscan panel) (Homo sapiens, UniProt P00519); settings: Published KINOMEscan, ref original PKIS2 published data, cited from earlier work
[3] = biological target: T1, kinases (KINOMEscan panel) (Homo sapiens, UniProt P15735); settings: kinase PHKG2; Published KINOMEscan; ref original PKIS2 published data; cited from earlier work
T1 sequence (P15735 1-406): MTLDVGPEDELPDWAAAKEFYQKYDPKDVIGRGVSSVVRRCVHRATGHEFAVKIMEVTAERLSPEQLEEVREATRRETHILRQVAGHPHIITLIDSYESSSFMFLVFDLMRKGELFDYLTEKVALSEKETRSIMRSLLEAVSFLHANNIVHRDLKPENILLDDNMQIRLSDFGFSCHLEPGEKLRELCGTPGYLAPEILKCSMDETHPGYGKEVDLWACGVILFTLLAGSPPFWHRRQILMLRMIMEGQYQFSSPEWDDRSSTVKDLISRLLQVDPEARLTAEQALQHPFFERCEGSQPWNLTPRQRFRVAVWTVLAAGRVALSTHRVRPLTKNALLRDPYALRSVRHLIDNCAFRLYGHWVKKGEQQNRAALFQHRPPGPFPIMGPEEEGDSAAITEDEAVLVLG

[4] = biological target: kinases (KINOMEscan panel) (Homo sapiens, UniProt P16591); settings: FER; Published KINOMEscan; ref original PKIS2 published data; cited from earlier work
[5] = biological target: kinases (KINOMEscan panel) (Homo sapiens, UniProt P22607); settings: FGFR3; Published KINOMEscan; ref original PKIS2 published data; cited from earlier work
[6] = biological target: T2, kinases (KINOMEscan panel) (Homo sapiens, UniProt P54753); settings: kinase EPHB3; Published KINOMEscan; ref original PKIS2 published data; cited from earlier work
T2 sequence (P54753 34-998): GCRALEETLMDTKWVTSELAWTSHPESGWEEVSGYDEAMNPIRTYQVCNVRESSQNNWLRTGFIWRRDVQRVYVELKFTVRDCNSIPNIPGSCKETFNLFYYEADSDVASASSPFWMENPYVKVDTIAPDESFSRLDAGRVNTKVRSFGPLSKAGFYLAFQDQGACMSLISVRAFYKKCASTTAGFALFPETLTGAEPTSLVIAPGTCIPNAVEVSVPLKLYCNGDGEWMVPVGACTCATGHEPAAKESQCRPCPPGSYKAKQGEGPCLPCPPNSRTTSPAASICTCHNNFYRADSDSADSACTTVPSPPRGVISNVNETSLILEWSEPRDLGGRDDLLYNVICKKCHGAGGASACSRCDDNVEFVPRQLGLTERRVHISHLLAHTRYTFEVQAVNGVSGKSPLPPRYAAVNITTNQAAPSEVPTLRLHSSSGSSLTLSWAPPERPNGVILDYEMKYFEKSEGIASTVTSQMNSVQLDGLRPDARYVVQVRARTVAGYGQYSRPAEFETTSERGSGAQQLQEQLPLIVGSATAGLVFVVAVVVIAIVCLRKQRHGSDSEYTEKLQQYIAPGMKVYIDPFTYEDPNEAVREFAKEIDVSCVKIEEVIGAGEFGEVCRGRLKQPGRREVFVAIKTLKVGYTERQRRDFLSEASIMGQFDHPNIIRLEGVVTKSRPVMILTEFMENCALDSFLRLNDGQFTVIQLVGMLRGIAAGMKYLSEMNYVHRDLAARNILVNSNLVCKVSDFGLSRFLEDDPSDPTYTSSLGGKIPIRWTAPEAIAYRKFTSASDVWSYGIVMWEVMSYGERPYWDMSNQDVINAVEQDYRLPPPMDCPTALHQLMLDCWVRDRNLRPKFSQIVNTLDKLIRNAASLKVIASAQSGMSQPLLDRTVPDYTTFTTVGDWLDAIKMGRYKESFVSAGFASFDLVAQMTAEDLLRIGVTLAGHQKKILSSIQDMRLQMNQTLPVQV

[7] = biological target: kinases (KINOMEscan panel) (Homo sapiens, UniProt Q02779); settings: kinase MAP3K10; Published KINOMEscan; ref original PKIS2 published data; cited from earlier work
[8] = biological target: kinases (KINOMEscan panel) (Homo sapiens, UniProt Q5VT25); settings: cited from earlier work
[9] = biological target: T3, kinases (KINOMEscan panel) (Homo sapiens, UniProt Q9UQ88); settings: Published KINOMEscan; ref original PKIS2 published data; cited from earlier work
T3 sequence (Q9UQ88 1-783): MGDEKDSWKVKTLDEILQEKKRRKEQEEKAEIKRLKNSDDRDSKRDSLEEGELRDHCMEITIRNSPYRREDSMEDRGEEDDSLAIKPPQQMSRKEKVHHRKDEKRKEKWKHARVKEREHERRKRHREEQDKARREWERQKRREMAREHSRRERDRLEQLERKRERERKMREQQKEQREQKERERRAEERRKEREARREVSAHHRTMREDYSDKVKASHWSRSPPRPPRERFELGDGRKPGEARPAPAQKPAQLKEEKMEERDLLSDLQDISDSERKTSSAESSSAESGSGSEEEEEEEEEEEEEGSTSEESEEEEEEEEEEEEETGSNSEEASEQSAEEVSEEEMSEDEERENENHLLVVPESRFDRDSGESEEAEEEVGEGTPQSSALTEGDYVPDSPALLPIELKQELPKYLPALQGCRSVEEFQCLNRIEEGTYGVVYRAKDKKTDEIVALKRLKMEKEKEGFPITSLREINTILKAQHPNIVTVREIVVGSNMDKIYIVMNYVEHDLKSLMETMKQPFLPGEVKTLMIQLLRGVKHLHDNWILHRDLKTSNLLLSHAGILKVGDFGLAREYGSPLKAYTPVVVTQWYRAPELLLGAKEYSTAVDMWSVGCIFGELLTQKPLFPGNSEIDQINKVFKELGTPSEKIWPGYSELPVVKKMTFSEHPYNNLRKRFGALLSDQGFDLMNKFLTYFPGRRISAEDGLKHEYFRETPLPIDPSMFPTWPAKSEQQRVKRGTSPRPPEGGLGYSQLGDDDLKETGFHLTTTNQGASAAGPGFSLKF

Sequence of kinases (KINOMEscan panel) (Homo sapiens, UniProt P00519) (P00519 whole entry): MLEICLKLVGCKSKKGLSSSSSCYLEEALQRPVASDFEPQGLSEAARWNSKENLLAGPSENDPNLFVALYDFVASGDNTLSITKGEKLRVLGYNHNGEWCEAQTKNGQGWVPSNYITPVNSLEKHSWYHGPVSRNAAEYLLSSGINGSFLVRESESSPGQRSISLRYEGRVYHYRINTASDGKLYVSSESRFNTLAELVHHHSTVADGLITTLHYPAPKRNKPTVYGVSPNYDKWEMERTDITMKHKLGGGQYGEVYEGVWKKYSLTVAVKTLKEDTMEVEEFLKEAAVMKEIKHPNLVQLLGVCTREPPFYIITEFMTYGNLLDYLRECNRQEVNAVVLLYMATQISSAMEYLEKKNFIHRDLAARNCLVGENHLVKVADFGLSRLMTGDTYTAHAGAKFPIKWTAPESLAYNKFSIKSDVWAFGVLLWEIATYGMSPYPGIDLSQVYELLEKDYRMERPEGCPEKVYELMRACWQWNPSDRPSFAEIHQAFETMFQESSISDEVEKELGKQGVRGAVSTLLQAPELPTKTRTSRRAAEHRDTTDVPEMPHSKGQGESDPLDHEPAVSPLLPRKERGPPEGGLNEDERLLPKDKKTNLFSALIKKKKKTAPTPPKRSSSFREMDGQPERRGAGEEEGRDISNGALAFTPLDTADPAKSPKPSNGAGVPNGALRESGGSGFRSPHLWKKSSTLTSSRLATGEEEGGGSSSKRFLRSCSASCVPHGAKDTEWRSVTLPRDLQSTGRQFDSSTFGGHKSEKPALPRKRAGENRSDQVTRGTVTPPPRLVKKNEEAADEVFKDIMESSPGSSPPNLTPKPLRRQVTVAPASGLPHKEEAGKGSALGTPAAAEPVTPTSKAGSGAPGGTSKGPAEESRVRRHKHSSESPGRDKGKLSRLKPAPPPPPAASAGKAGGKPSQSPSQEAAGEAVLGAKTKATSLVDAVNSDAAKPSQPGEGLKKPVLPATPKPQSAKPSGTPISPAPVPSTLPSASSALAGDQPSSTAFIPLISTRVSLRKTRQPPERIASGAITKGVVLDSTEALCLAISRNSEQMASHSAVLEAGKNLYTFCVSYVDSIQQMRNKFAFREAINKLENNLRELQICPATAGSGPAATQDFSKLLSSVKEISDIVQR
Sequence of kinases (KINOMEscan panel) (Homo sapiens, UniProt Q02779) (Q02779 whole entry): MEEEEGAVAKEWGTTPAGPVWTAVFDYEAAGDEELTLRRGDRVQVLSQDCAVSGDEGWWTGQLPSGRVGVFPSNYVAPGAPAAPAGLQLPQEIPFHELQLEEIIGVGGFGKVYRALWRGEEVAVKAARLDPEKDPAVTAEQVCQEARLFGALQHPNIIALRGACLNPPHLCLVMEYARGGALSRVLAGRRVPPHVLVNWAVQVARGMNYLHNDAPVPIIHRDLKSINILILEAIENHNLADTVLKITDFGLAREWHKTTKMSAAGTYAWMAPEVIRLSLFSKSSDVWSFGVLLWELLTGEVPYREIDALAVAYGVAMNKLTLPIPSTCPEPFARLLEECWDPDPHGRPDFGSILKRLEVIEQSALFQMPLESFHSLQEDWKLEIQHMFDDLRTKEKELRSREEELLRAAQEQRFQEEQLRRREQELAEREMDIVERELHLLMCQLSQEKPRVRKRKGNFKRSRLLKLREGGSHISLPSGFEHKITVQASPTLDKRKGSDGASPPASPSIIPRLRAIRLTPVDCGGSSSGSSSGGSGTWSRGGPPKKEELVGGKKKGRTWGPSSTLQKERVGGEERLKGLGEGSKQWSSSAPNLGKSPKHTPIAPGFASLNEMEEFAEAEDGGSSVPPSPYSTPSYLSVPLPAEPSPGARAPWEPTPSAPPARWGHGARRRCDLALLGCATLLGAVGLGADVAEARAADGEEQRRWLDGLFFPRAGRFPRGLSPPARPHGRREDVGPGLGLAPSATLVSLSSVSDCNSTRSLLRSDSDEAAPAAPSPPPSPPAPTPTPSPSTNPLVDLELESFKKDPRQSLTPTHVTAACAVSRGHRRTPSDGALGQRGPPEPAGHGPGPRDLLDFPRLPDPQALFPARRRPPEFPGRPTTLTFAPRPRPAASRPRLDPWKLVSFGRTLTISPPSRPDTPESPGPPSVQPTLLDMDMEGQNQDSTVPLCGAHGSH
Sequence of kinases (KINOMEscan panel) (Homo sapiens, UniProt P16591) (P16591 whole entry): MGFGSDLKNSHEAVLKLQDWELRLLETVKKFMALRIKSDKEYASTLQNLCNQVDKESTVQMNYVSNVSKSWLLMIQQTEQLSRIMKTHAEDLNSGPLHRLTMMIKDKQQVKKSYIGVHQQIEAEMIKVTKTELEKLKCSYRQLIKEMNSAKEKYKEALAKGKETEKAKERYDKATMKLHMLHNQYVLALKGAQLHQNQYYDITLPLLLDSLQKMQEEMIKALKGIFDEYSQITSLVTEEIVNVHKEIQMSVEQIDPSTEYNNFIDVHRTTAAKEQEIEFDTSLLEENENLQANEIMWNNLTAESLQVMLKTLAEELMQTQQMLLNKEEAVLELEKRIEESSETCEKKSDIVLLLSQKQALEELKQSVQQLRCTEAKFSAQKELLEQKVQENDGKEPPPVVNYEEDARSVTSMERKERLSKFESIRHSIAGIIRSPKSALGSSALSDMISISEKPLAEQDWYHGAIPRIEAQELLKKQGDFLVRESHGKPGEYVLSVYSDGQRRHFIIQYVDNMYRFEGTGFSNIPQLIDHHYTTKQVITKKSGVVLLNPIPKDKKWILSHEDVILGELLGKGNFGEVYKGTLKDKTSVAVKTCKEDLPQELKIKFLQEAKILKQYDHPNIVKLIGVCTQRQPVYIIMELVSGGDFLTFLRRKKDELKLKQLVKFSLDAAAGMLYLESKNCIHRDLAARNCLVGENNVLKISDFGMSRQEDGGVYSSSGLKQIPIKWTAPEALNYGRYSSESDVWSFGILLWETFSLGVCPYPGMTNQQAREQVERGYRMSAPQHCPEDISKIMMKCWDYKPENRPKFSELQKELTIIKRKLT
Sequence of kinases (KINOMEscan panel) (Homo sapiens, UniProt O75460) (O75460 19-977): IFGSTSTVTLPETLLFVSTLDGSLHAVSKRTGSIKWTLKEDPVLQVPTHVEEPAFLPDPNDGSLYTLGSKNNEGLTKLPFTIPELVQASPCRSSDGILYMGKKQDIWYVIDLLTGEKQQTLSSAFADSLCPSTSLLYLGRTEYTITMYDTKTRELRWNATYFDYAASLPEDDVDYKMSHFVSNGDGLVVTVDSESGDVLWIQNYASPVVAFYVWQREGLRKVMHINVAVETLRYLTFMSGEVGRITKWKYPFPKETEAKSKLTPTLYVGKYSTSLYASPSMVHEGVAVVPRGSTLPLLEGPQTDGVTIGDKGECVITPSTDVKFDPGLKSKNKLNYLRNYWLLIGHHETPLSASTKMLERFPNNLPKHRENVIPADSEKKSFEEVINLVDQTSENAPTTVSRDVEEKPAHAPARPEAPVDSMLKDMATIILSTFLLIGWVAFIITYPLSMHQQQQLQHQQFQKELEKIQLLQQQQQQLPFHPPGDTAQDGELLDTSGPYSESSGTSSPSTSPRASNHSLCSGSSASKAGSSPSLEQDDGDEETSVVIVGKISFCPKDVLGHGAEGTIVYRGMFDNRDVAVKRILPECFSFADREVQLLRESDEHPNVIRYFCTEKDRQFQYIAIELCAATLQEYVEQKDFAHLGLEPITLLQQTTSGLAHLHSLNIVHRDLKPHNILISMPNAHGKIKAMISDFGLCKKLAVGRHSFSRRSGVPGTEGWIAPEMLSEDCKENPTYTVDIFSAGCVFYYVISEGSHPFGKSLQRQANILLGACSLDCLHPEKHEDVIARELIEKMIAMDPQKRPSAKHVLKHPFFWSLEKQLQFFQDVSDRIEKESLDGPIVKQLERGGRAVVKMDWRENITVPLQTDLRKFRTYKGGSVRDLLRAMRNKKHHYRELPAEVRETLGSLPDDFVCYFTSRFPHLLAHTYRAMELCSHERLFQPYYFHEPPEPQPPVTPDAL
Sequence of kinases (KINOMEscan panel) (Homo sapiens, UniProt P22607) (P22607 23-806): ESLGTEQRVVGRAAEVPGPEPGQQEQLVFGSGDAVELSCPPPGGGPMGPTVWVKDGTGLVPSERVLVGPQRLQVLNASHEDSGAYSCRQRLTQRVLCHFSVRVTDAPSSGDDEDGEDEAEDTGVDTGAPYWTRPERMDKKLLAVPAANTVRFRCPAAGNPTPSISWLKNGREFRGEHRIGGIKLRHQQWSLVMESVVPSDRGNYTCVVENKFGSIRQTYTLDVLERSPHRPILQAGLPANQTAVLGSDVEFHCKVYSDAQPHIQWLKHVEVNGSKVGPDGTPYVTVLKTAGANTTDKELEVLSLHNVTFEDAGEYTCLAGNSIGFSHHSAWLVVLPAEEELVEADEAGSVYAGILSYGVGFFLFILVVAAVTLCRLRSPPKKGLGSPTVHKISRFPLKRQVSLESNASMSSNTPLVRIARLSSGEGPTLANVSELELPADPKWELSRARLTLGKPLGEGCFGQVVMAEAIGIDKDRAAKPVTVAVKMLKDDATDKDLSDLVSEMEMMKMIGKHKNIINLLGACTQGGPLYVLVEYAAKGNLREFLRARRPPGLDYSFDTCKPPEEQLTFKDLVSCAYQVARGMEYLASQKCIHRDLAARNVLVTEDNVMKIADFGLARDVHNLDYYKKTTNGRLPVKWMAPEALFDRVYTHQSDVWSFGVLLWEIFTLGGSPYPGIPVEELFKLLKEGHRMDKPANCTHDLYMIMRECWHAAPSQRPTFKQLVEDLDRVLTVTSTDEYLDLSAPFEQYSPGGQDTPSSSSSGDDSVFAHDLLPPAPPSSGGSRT

## Cc1cccc(-c2nc(Nc3ccncc3)c3ccccc3n2)n1 [NK215]
[1]
  KINOMEscan ERN1: 0
[2]; ABL1-nonphosphorylated
  KINOMEscan ABL1-nonphosphorylated: 39
[2]; ABL1-phosphorylated
  KINOMEscan ABL1-phosphorylated: 28
[3]
  KINOMEscan PHKG2: 3
[4]
  KINOMEscan FER: 0
[5]
  KINOMEscan FGFR3: 2
[6]
  KINOMEscan EPHB3: 11
[7]
  KINOMEscan MAP3K10: 7
[8]
  KINOMEscan CDC42BPA/MRCKA: 47
[9]
  KINOMEscan CDK11A: 0
